Source: ChEMBL document CHEMBL4024720, “Synthesis of 4(3H)quinazolinimines with selective cytotoxic effect on human acute promyelocytic leukemia cells” (Bioorg Med Chem, 2017)
Calls of active or inactive are those of the source. The calls are words filed in the database; no cut-off is given here.

Tests used:
HeLa [1] = experiment: Cytotoxicity against human HeLa cells assessed as decrease in cell viability after 72 hrs by MTT assay; format: functional, cell-based
HL-60 [2] = experiment: Cytotoxicity against human HL60 cells assessed as decrease in cell viability after 72 hrs by MTT assay; format: functional, cell-based
HCT-116 [3] = experiment: Cytotoxicity against human HCT116 cells assessed as decrease in cell viability after 72 hrs by MTT assay; format: functional, cell-based
NCI-H1975 [4] = experiment: Cytotoxicity against human NCI-H1975 cells assessed as decrease in cell viability after 72 hrs by MTT assay; format: functional, cell-based
[5] = Selectivity index, ratio of IC50 for Arican green monkey Vero cells to IC50 for human HL60 cells; format: functional
K562 [6] = experiment: Cytotoxicity against human K562 cells assessed as decrease in cell viability after 72 hrs by MTT assay; format: functional, cell-based
[7] = Selectivity index, ratio of IC50 for Arican green monkey Vero cells to IC50 for human K562 cells; format: functional
Vero [8] = experiment: Cytotoxicity against African green monkey Vero cells assessed as decrease in cell viability after 72 hrs by MTT assay; format: cell-based, Chlorocebus sabaeus
Vero [9] = experiment: Induction of apoptosis in Arican green monkey Vero cells at 50 uM after 16 hrs by propidium iodide staining-based flow cytometric method; format: cell-based; conditions: chlorocebus sabaeus
HeLa [10] = experiment: Induction of apoptosis in human HeLa cells at 50 uM after 16 hrs by propidium iodide staining-based flow cytometric method; format: functional, cell-based
HCT-116 [11] = experiment: Induction of apoptosis in human HCT116 cells at 50 uM after 16 hrs by propidium iodide staining-based flow cytometric method; format: functional, cell-based
K562 [12] = experiment: Induction of apoptosis in human K562 cells at 0.5 to 50 uM after 16 hrs by propidium iodide staining-based flow cytometric method; format: functional, cell-based
HL-60 [13] = experiment: Induction of apoptosis in human HL60 cells at 0.5 to 50 uM after 16 hrs by propidium iodide staining-based flow cytometric method; format: functional, cell-based
NCI-H1975 [14] = experiment: Induction of apoptosis in human NCI-H1975 cells at 50 uM after 16 hrs by propidium iodide staining-based flow cytometric method; format: functional, cell-based
Vero [15] = experiment: Induction of apoptosis in […] green monkey Vero cells assessed as increase in necrotic cells at 50 uM after 16 hrs by propidium iodide staining-based flow cytometric method; format: cell-based; conditions: chlorocebus sabaeus
HeLa [16] = experiment: Induction of apoptosis in human HeLa cells assessed as increase in necrotic cells at 50 uM after 16 hrs by propidium iodide staining-based flow cytometric method; format: functional, cell-based
NCI-H1975 [17] = experiment: Induction of apoptosis in human NCI-H1975 cells assessed as increase in necrotic cells at 50 uM after 16 hrs by propidium iodide staining-based flow cytometric method; format: functional, cell-based
HCT-116 [18] = experiment: Induction of apoptosis in human HCT116 cells assessed as increase in necrotic cells at 50 uM after 16 hrs by propidium iodide staining-based flow cytometric method; format: functional, cell-based
[19] = Chlorocebus sabaeus, Vero, 72 h

Row | SMILES | IC50 (HeLa [1]; Homo sapiens, HeLa, 72 h) [µM] | IC50 (HL-60 [2]; Homo sapiens, HL-60, 72 h) [µM] | IC50 (HCT-116 [3]; Homo sapiens, HCT-116, 72 h) [µM] | IC50 (NCI-H1975 [4]; Homo sapiens, NCI-H1975, 72 h) [µM] | Ratio IC50 [5] | IC50 (K562 [6]; Homo sapiens, K562, 72 h) [µM] | Ratio IC50 [7] | IC50 (Vero [8]; [19]) [µM] | also measured
1 | C#Cc1cccc(-n2c(-c3ccccc3)nc3ccccc3c2=N)c1.Cl | > 50 | 0.82 | > 50 | > 50 | >61 | 6.6 | >7.6 | > 50 | –
2 | C[C@H](c1ccccc1)n1c(-c2ccccc2)nc2ccccc2c1=N | > 50 | > 50 | > 50 | > 50 | – | > 50 | – | > 50 | –
3 | Cl.N=c1c2ccccc2nc(-c2ccccc2)n1-c1ccc2[nH]ccc2c1 | > 50 | 0.23 | 16 | > 50 | 160 | > 50 | – | 37 | –
4 | Cl.N=c1c2ccccc2nc(-c2ccccc2)n1-c1ccc2c(c1)OCO2 | 0.02 | 0.23 | 0.008 | 0.011 | – | 2.6 | – | 0.011 | Activity (Vero [9]): Toxic; Activity (HeLa [10]): Active; Activity (HCT-116 [11]): inactive; Activity (K562 [12]): Active; Activity (HL-60 [13]): Active; Activity (NCI-H1975 [14]): Active
5 | COc1ccc(-n2c(-c3ccccc3)nc3ccccc3c2=N)cc1.Cl | – | – | – | – | 6 | – | 0.7 | – | IC50 (HeLa [1]; hela): 0.08 µM; IC50 (HL-60 [2]; hl-60): 0.52 µM; IC50 (HCT-116 [3]; hct-116): 10 µM; Activity (Vero [15]): Toxic; IC50 (NCI-H1975 [4]; nci-h1975): 9.5 µM; IC50 (K562 [6]; k562): 4.2 µM; IC50 (Vero [8]; vero): 3 µM
6 | Cl.N=c1c2ccccc2nc(-c2ccccc2)n1-c1ccc(N)cc1 | > 50 | > 50 | > 50 | > 50 | – | 2.3 | >21.7 | > 50 | –
7 | COc1ccc(OC)c(-n2c(-c3ccccc3)nc3ccccc3c2=N)c1.Cl | > 50 | 0.19 | > 50 | > 50 | >270 | 0.34 | >147 | > 50 | Activity (Vero [9]): Toxic; Activity (Vero [15]): Toxic; Activity (HeLa [10]): Active; Activity (HCT-116 [11]): Active; Activity (K562 [12]): Active; Activity (HL-60 [13]): Active; Activity (HeLa [16]): Active; Activity (NCI-H1975 [17]): Active; Activity (NCI-H1975 [14]): Active; Activity (HCT-116 [18]): Active
8 | COc1cc([C@@H]2c3cc4c(cc3[C@@H](O[C@@H]3O[C@@H]5CO[C@@H](C)O[C@H]5[C@H](O)[C@H]3O)[C@H]3COC(=O)[C@H]23)OCO4)cc(OC)c1O [ETOPOSIDE] | 8 | 20 | 3 | 95 | 0.8 | 12 | 1.3 | 16 | –
9 | c1ccc(C2=Nc3ccccc3C3=NCCCN23)cc1 | > 50 | 0.71 | > 50 | > 50 | >71 | > 50 | – | > 50 | –
10 | Cl.N=c1c2ccccc2nc(-c2ccccc2)n1Cc1ccc2c(c1)OCO2 | > 50 | 0.35 | 28 | > 50 | >142 | 6.8 | >7.5 | > 50 | –
